pIC50: −log10 of the molar value.
What was measured:
CDK1:Cyclin-B = target: T1, CDK1:Cyclin-B (Homo sapiens, UniProt P06493); test: CDK1 Screening Assay; assay type: biochemical
T1 construct: purchased New England Biolabs, Beverly, Mass; 6020; host or cells: insect cells

HER2 cytoplasmic domain = target: T2, HER2 cytoplasmic domain (Homo sapiens, UniProt P04626); test: HER2 Kinase Screening Assay; assay type: biochemical; conditions: > means no observed 50% inhibition at the indicated test concentration; ~ means approximately 50% inhibition at that concentration
T2 construct: polyhistidine (N)
T2 sequence (P04626 676-1255 limits assumed): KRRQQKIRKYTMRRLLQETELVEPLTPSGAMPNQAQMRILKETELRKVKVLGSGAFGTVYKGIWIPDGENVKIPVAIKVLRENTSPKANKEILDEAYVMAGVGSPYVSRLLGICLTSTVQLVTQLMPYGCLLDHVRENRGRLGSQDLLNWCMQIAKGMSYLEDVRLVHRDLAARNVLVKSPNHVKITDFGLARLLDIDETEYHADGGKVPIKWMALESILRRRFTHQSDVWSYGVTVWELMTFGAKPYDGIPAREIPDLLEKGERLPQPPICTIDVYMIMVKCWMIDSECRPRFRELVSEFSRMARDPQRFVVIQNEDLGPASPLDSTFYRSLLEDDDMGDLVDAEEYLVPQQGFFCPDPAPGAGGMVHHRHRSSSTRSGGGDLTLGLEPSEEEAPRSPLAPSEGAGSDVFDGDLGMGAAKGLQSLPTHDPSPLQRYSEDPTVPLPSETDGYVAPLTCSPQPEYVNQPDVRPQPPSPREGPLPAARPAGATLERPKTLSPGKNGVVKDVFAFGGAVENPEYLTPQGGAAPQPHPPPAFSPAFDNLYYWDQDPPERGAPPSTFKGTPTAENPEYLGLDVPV

[1] = tested on: HeLa cervical adenocarcinoma; test: Inhibition of in vitro cell proliferation (HeLa); assay type: cell-based, human; conditions: Homo sapiens, 14C-thymidine incorporation;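 also: cells exposed to compound for 24 h, then labelled 24 h with methyl 14C-thymidine, with uptake into DNA counted by scintillation against DMSO-only control wells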
HCT-116 colon carcinoma = test: Inhibition of in vitro cell proliferation (HCT116); assay type: cell-based, human; conditions: Homo sapiens, HCT-116, 14C-thymidine incorporation;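 also: cells exposed to compound for 24 h, then 14C-thymidine added for a further 24 h and its uptake into DNA counted by scintillation, DMSO-only wells as control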
A375 malignant melanoma = test: Inhibition of in vitro cell proliferation (A375); assay type: cell-based, human; conditions: Homo sapiens, A-375, 14C-thymidine incorporation;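 also: cells plated for 24 h, given compound for 24 h, then labelled with 14C-thymidine for another 24 h, with DMSO-only wells as control and counts read by scintillation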
[2] = In vivo tumor xenograft models overall (tolerability, body weight, plasma levels)
Method: Female Nu/Nu˜nuBR athymic nude mice (obtained from Charles River Laboratories), at the age of 5-6 weeks were feed water and an irradiated standard rodent diet ad libitum, and housed in specific pathogen-free conditions, according to the guidelines of the American Association for Accreditation of Lab Animal Care (AALAC).
Tumor measurements and body weights were recorded individually (2×/week) during the treatment period of the experiment. Tumors were measured using a digital caliper. Data was recorded/calculated using Study Director software (StudyLog Systems, Inc.) and graphs were created in GraphPad Prizm.
The volume of each tumor in an animal was calculated according to the formula: (D×d^2)/2, where the diameters were determined from two orthogonal measurements on each tumor. The mean tumor volume was determined by averaging all tumor volumes in each group. The mean body weight was determined by averaging all body weights in each group.

[3] = tested on: spontaneous intestinal adenoma formation; test: C57BL/6J-APC Min-mouse model of human adenomatous polyposis coli; assay type: in vivo, C57BL/6J-Apc min mice; conditions: 100 mg/kg orally once-daily; vehicle 47±7, baseline 23±4
Method: The ability of Compound 50 to inhibit angiogenesis and tumor growth was tested in a spontaneous tumor model. the pre-cancerous polyp formation in the mouse model of human intestinal tumorigenesis.
Transgenic C57BL/6J-Apc min mice heterozygous for a dominant nonsense Apc mutation are highly susceptible to spontaneous intestinal adenoma formation (homozygous mice are not viable). One hundred percent of these animals will develop polyps by 12 weeks of age. This model is widely used for studying prevention of intestinal adenoma formation and is well described in the literature (Yang K, Edelmann W, Fan K, et. al. A mouse model of human familial adenomatous polyposis. J Exp Zool. 1997 15; 277(3):245-54).
Female C57BL/6J-Apc^Min mice (Jackson Laboratory, MN), 5 weeks of age, were housed (up to 10 mice per group) for a minimum of one week. Animals were then sorted into treatment groups based on body weight such that the mean body weight for the animals in each group was approximately the same. Small cohorts of animals (n=6) were sacrificed at day 1, before treatment to get a baseline number of polyps (mean polyp number at beginning of study). […]
Animals in the treated group (n=10) were dosed daily with Compound 50 at 100 mg/kg orally q.d. for one week. […] The intestine of each mouse was excised, perfused, stained (0.01% Trypan Blue) and polyps were counted under 10× magnification.

tyrosine kinase KIT = tyrosine kinase KIT (Homo sapiens, UniProt P10721); test: KIT Kinase Screening Assay
tyrosine kinase KIT, sequence (P10721 26-976): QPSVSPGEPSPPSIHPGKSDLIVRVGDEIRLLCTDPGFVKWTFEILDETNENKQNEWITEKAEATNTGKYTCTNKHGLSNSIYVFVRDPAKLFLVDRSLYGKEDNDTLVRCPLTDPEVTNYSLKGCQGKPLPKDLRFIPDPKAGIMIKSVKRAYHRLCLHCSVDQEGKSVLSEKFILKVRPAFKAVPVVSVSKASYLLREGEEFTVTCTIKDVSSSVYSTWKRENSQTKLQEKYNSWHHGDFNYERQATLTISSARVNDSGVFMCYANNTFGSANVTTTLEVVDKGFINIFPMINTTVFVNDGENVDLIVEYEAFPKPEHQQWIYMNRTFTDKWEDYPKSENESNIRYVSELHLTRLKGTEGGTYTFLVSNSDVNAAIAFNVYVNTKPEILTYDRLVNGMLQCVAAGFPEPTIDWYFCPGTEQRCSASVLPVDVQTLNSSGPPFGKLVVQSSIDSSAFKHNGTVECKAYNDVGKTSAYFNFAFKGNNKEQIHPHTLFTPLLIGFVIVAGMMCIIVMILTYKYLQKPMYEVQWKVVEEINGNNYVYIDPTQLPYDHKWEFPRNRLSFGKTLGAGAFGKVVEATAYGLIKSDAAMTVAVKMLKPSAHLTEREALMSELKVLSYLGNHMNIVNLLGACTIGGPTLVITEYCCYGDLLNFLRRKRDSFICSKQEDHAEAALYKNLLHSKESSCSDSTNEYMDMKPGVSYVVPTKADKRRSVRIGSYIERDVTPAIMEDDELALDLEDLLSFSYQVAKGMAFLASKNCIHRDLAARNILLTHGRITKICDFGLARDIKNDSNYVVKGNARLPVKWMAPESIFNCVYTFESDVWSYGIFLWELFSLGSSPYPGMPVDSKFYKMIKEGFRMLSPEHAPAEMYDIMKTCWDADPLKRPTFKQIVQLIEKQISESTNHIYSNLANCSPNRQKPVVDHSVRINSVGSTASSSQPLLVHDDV

[4] = 100 mg/kg daily, 24-28 days of treatment
[5] = A431 and HCT116 models, continuous administration for 24 days

T1 sequence (P06493 whole entry): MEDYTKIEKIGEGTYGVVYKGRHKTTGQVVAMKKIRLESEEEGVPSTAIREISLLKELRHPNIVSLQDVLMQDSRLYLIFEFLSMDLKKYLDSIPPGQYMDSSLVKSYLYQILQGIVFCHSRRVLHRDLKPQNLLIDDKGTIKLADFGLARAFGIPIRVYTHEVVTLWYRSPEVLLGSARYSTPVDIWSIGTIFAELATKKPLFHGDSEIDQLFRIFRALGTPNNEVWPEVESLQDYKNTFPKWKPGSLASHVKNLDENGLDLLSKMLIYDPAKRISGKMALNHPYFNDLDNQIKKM
T1 sequence (P14635 whole entry partner): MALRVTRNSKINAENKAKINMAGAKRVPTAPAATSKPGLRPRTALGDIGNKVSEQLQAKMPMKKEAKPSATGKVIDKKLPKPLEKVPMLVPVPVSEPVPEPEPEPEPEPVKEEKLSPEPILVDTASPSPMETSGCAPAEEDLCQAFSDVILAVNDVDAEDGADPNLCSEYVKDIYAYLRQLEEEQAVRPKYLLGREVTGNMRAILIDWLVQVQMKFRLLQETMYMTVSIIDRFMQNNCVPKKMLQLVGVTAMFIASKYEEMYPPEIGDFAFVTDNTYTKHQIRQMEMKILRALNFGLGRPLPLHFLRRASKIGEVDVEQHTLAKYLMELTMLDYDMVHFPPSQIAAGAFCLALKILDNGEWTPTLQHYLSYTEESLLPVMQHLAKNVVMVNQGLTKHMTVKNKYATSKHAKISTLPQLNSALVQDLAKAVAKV

CCNC(=O)Nc1ccc(Oc2ncnc(N)c2/C=N/OC)cc1Cl [Cpd 50, 1-{4-[6-amino-5-(methoxyimino-methyl)-pyrimidin-4-yloxy]-2-chloro-phenyl}-3-ethyl-urea]
pIC50 (CDK1:Cyclin-B): < 4.00 | pIC50 (HER2 cytoplasmic domain): < 4.00 | IC50 [1]: 3.57 µM | IC50 (HCT-116 colon carcinoma): 3.7 µM | IC50 (A375 malignant melanoma): 3.91 µM | inhibition in tumor xenograft models ([2]; 10 mg/kg qd): 28-48% | plasma levels ([2]; 100 mg/kg daily dosing schedule, oral, mice): 20 µM | body weight [2, 4]: no reduction of body weight | tolerability [2, 4]: well-tolerated | treatment-related deaths [2, 4]: no treatment-related deaths | body weights [2, 5]: comparable with control animals | tolerability [2, 5]: well tolerated | polyp counts [3]: 27±7 | pIC50 (tyrosine kinase KIT): 6.30
